From patent US10173991B2, “Sulfone amide linked benzothiazole inhibitors of endothelial lipase” (BRISTOL-MYERS SQUIBB COMPANY, priority 2014, dated 2019)
Where two headings read alike, the source gives them in different places.

Molecular target: Endothelial lipase (EL) (Homo sapiens (Human), UniProt Q9Y5X9)
Assay: Endothelial lipase (EL) enzymatic assay with fluorescent substrate A10070 in DMPG vesicles
Format: biochemical
Experimental: Endothelial lipase (EL) and hepatic lipase (HL) activities were measured using a fluorescent substrate, A10070, (Invitrogen, CA) doped into an artificial vesicle containing DMPG (Avanti Polar Lipids) as the excipient. Vesicles were prepared by combining 571 μL of 29 mM DMPG in a 1:1 mixture of MeOH and CHCl3 with 2000 μL of 1 mM A10070 in a 1:1 mixture of MeOH and CHCl3. The mixture was dried under nitrogen in multiple vials then resuspended in 20 mL total volume of 50 mM HEPES pH 8.0 buffer containing 50 mM NaCl and 0.2 mM EDTA. The sample was allowed to sit at room temperature for 15 min and then was sonicated 3×4 mins on ice with a Branson Sonicator using duty cycle 1. This preparation provides vesicles with a mole fraction of 0.11 for the FRET substrate.
The enzymatic assay was measured using 384-well white Optiplates. Each well contained 20 μL of assay buffer (50 mM HEPES pH 8.0, 50 mM NaCl and 1 mM CaCl2) and 0.25 μL of a DMSO solution containing a compound of interest. EL or HL (10 μL) was added and allowed to incubate with the compound for 30 min at 37° C. The source of EL was conditioned media obtained from HT-1080 cells that were transformed using RAGE technology (Athersys) to overexpress endogenous EL, and HL was partially purified from conditioned media obtained from COS cells overexpressing HL. The reaction was started by the addition of 10 μL of a 1:10 dilution of vesicles. The final total reaction volume was […]. The reaction rates were measured on a Gemini plate reader with an excitation wavelength of 490 nm and an emission wavelength of 530 nm. Readings were taken over a period of 60 minutes, and the slope between 300 and 900 secs of the readout was used to calculate the rate of the reaction.

Chain of Endothelial lipase (EL) (Q9Y5X9 21-500): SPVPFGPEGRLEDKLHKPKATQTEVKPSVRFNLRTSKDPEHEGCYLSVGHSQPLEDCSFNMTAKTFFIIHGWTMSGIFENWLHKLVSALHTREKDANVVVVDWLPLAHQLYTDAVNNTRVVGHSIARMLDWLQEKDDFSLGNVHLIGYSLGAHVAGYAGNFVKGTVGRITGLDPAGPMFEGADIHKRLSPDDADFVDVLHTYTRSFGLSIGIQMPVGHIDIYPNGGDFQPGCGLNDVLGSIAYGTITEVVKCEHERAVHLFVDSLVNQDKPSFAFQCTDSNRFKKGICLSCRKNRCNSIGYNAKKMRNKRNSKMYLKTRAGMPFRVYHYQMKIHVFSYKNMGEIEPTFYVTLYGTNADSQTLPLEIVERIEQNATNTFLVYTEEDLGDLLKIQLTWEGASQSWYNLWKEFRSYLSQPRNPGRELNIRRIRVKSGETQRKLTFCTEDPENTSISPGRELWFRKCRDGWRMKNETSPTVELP

Compound | IC50 (EL from conditioned media of HT-1080 cells, 30 min preincubation at 37° C.) [nM] | IC50 [nM]
CS(=O)(=O)C(C(=O)NCC(=O)NC1CC1)c1nc2cc(F)c(-c3ccc(NC(=O)OCc4ccccc4)cc3)cc2s1 (stereo not shown) [Example 1, Benzyl N-{4-[2-({[(cyclopropylcarbamoyl)methyl]carbamoyl}(methanesulfonyl)methyl)-5-fluoro-1,3-benzothiazol-6-yl]phenyl}carbamate] | 3 | –
COC(=O)Nc1ccc(-c2cc3sc(C(C(=O)NCC(=O)NC4CC4)S(=O)(=O)CC4CC4)nc3cc2F)cc1 (stereo not shown) [Example 2, methyl N-{4-[2-({[(cyclopropyl-carbamoyl)methyl]carbamoyl} (cyclopropyl-methanesulfonyl)methyl)-5-fluoro-1,3-benzothiazol-6-yl]phenyl} carbamate] | – | 3
CS(=O)(=O)C(C(=O)NCC(=O)NC1CC1)c1nc2cc(F)c(-c3ccc(NC(N)=O)cc3)cc2s1 (stereo not shown) [Example 3, 2-{6-[4-(carbamoyl-amino)phenyl]-5-fluoro-1,3-benzothiazol-2-yl}-N-[(cyclopropyl-carbamoyl)methyl]-2-methanesulfonyl-acetamide] | – | 3
COCCS(=O)(=O)C(C(=O)NCC(=O)NC1CC1)c1nc2cc(F)c(-c3ccc(NC(N)=O)cc3)cc2s1 (stereo not shown) [Example 4, 2-{6-[4-(carbamoyl-amino)phenyl]-5-fluoro-1,3-benzothiazol-2-yl}-N-[(cyclopropyl-carbamoyl)methyl]-2-(2-methoxy-ethanesulfonyl) acetamide] | – | 9
CC(C)S(=O)(=O)C(C(=O)NCC(=O)NC1CC1)c1nc2cc(F)c(-c3ccc(NC(N)=O)cc3)cc2s1 (stereo not shown) [Example 5, 2-{6-[4-(carbamoyl-amino)phenyl]-5-fluoro-1,3-benzothiazol-2-yl}-N-[(cyclopropyl-carbamoyl)methyl]-2-(propane-2-sulfonyl) acetamide] | – | 9
CN(C)C(=O)Nc1ccc(-c2cc3sc(C(C(=O)NCC(=O)NC4CC4)S(=O)(=O)CCC(F)(F)F)nc3cc2F)cc1 (stereo not shown) [Example 6, N-[(cyclopropyl-carbamoyl)methyl]-2-(6-{4-[(dimethyl-carbamoyl)amino]phenyl}-5-fluoro-1,3-benzothiazol-2-yl)-2-(3,3,3-trifluoropropane-sulfonyl) acetamide] | – | 3
NC(=O)Nc1ccc(-c2cc3sc(C(C(=O)NCC(=O)NC4CC4)S(=O)(=O)CCC(F)(F)F)nc3cc2F)cc1 (stereo not shown) [Example 7, 2-{6-[4-(carbamoyl-amino)phenyl]-5-fluoro-1,3-benzothiazol-2-yl}-N-[(cyclopropyl-carbamoyl)methyl]-2-(3,3,3-trifluoropropane-sulfonyl) acetamide] | – | 5
CS(=O)(=O)C(C(=O)NCC(=O)NC1CC1)c1nc2cc(-c3ccc(NC(=O)OCc4ccccc4)cc3)c(F)cc2s1 (stereo not shown) [Example 8, benzyl N-{4-[2-({[(cyclopropyl-carbamoyl)methyl]carbamoyl} (methane-sulfonyl)methyl)-6-fluoro-1,3-benzothiazol-5-yl]phenyl} carbamate] | – | 1
O=C(CNC(=O)C(c1nc2cc(-c3ccc(NC(=O)OCc4ccccc4)cc3)c(F)cc2s1)S(=O)(=O)CCC(F)(F)F)NC1CC1 (stereo not shown) [Example 9, benzyl N-{4-[2-({[(cyclopropyl-carbamoyl)methyl]carbamoyl} (3,3,3-trifluoro-propanesulfonyl)methyl)-6-fluoro-1,3-benzothiazol-5-yl]phenyl} carbamate] | – | 1
COCCS(=O)(=O)C(C(=O)NCC(=O)NC1CC1)c1nc2cc(-c3ccc(NC(=O)OCc4ccccc4)cc3)c(F)cc2s1 (stereo not shown) [Example 10, benzyl N-{4-[2-({[(cyclopropyl-carbamoyl)methyl]carbamoyl}(2-methoxyethane-sulfonyl)methyl)-6-fluoro-1,3-benzothiazol-5-yl]phenyl} carbamate] | – | 1
O=C(CNC(=O)C(c1nc2cc(-c3ccc(NC(=O)OCc4ccccc4)cc3)c(F)cc2s1)S(=O)(=O)C1CC1)NC1CC1 (stereo not shown) [Example 11, benzyl N-(4-{2-[(cyclopropane-sulfonyl) ({[(cyclopropyl-carbamoyl)methyl]carbamoyl})methyl]6-fluoro-1,3-benzothiazol-5-yl}phenyl) carbamate] | – | 1
O=C(CNC(=O)C(c1nc2cc(-c3ccc(F)nc3)ccc2s1)S(=O)(=O)CCC(F)(F)F)NC1CC1 (stereo not shown) [Example 12, N-[(cyclopropyl-carbamoyl)methyl]-2-[5-(6-fluoropyridin-3-yl)-1,3-benzothiazol-2-yl]-2-(3,3,3-trifluoropropane-sulfonyl) acetamide] | – | 7
O=C(CNC(=O)C(c1nc2cc(-c3ccc(F)nc3)ccc2s1)S(=O)(=O)Cc1ccc(F)cc1)NC1CC1 (stereo not shown) [Example 13, N-[(cyclopropyl-carbamoyl)methyl]-2-[(4-fluorophenyl)methanesulfonyl]-2-[5-(6-fluoropyridin-3-yl)-1,3-benzothiazol-2-yl]acetamide] | – | 15
O=C(CNC(=O)C(c1nc2cc(-c3ccc(F)nc3)ccc2s1)S(=O)(=O)Cc1ccccc1)NC1CC1 (stereo not shown) [Example 14, N-[(cyclopropyl-carbamoyl)methyl]-2-[5-(6-fluoropyridin-3-yl)-1,3-benzothiazol-2-yl]-2-phenylmethane-sulfonylacetamide] | – | 23
O=C(CNC(=O)C(c1nc2cc(-c3ccc(F)nc3)ccc2s1)S(=O)(=O)Cc1ccc(F)nc1)NC1CC1 (stereo not shown) [Example 15, N-[(cyclopropyl-carbamoyl)methyl]-2-[5-(6-fluoropyridin-3-yl)-1,3-benzothiazol-2-yl]-2-[(6-fluoropyridin-3-yl)methanesulfonyl] acetamide] | – | 29
CC(C)S(=O)(=O)C(C(=O)NCC(=O)NC1CC1)c1nc2cc(-c3ccc(F)nc3)ccc2s1 (stereo not shown) [Example 16, N-[(cyclopropyl-carbamoyl)methyl]-2-[5-(6-fluoropyridin-3-yl)-1,3-benzothiazol-2-yl]-2-(propane-2-sulfonyl) acetamide] | – | 39
O=C(CNC(=O)C(c1nc2cc(-c3ccc(F)nc3)ccc2s1)S(=O)(=O)Cc1ccc(C(F)(F)F)cc1)NC1CC1 (stereo not shown) [Example 17, N-[(cyclopropyl-carbamoyl)methyl]-2-[5-(6-fluoropyridin-3-yl)-1,3-benzothiazol-2-yl]-2-{[4-(trifluoromethyl)phenyl]methanesulfonyl} acetamide] | – | 46
O=C(CNC(=O)C(c1nc2ccc(-c3ccc(F)nc3)cc2s1)S(=O)(=O)Cc1ccccc1F)NC1CC1 (stereo not shown) [Example 18, N-[(cyclopropyl-carbamoyl)methyl]-2-[(2-fluorophenyl)methanesulfonyl]-2-[6-(6-fluoropyridin-3-yl)-1,3-benzothiazol-2-yl]acetamide] | – | 253
COc1ccc(OCCCS(=O)(=O)C(C(=O)NCC(=O)NC2CC2)c2nc3ccc(-c4ccc(F)nc4)cc3s2)cc1 (stereo not shown) [Example 19, N-[(cyclopropyl-carbamoyl)methyl]-2-[6-(6-fluoropyridin-3-yl)-1,3-benzothiazol-2-yl]-2-[3-(4-methoxyphenoxy)propanesulfonyl] acetamide] | – | 7
N#Cc1cccc(CS(=O)(=O)C(C(=O)NCC(=O)NC2CC2)c2nc3ccc(-c4ccc(F)nc4)cc3s2)c1 (stereo not shown) [Example 20, 2-[(3-cyanophenyl)methanesulfonyl]-N-[(cyclopropyl-carbamoyl)methyl]-2-[6-(6-fluoropyridin-3-yl)-1,3-benzothiazol-2-yl]acetamide] | – | 46
Cc1ncc(-c2ccc3nc(C(C(=O)NCC(=O)NC4CC4)S(=O)(=O)Cc4cccc(C#N)c4)sc3c2)cn1 (stereo not shown) [Example 21, 2-[(3-cyanophenyl)methanesulfonyl]-N-[(cyclopropyl-carbamoyl)methyl]-2-[6-(2-methylpyrimidin-5-yl)-1,3-benzothiazol-2-yl]acetamide] | – | 145
CC(C)n1cc(-c2cc3sc(C(C(=O)NCC(=O)NC4CC4)S(=O)(=O)C(C)C)nc3cc2F)ccc1=O (stereo not shown) [Example 22, N-[(cyclopropyl-carbamoyl)methyl]-2-{5-fluoro-6-[6-oxo-1-(propan-2-yl)-1,6-dihydropyridin-3-yl]-1,3-benzothiazol-2-yl}-2-(propane-2-sulfonyl) acetamide] | – | 37
COC(=O)N(C)c1ccc(-c2ccc3nc(C(C(=O)NCC(=O)NC4CC4)S(C)(=O)=O)sc3c2)cc1 (stereo not shown) [Example 23, methyl N-{4-[2-({[(cyclopropyl-carbamoyl)methyl]carbamoyl} (methanesulfonyl)methyl)-1,3-benzothiazol-6-yl]phenyl}-N-methylcarbamate] | – | 14
COC(=O)N(C)c1ccc(-c2ccc3nc(C(C(=O)NCC(=O)NC4CC4)S(=O)(=O)CCC(F)(F)F)sc3c2)cc1 (stereo not shown) [Example 24, methyl N-{4-[2-({[(cyclopropyl-carbamoyl)methyl]carbamoyl} (3,3,3-trifluoropropane-sulfonyl)methyl)-1,3-benzothiazol-6-yl]phenyl}-N-methylcarbamate] | – | 6
COCCS(=O)(=O)C(C(=O)NCC(=O)NC1CC1)c1nc2ccc(-c3ccc(N(C)C(=O)OC)cc3)cc2s1 (stereo not shown) [Example 25, methyl N-{4-[2-({[(cyclopropyl-carbamoyl)methyl]carbamoyl}(2-methoxyethane-sulfonyl)methyl)-1,3-benzothiazol-6-yl]phenyl}-N-methylcarbamate] | – | 7
